Patent US20230398051A1, “Anti-Microbial Skin-Care Composition Comprising Beta-Glucan and Natural Oil” (LANTMÄNNEN OATS AB, priority 2020, published 2023)

Experiments:
L. monocytogenes = assay: Log reduction according to EN 1276; format: cell-based
S. typhimurium = assay: Log reduction according to EN 1276; format: cell-based
E. coli = assay: Log reduction according to EN 1276; format: cell-based
Excerpt: (§1) As shown in the Examples herein, the skin-care composition is active against bacteria and due to its content of hydrogen peroxide and lactate/lactic it is contemplated to be active against viruses as well, i.e. functioning as an anti-microbial composition. It has been shown that a synergistic effect between hydrogen peroxide and lactic acid in bacteria such as E. coli, P. aeruginosa, E. hirae, S. aureus, L. monocytogenes and S. typhimurium, see the following tables: […]

S. aureus = assay: Log reduction according to EN 1276; format: cell-based
Excerpt: as §1

P. aeruginosa = assay: Log reduction according to EN 1276; format: cell-based
E. hirae = assay: Log reduction according to EN 1276; format: cell-based
bacteria, viruses = conditions: 0.5% hydrogen peroxide; cited from earlier work
spores = conditions: cited from earlier work
bacteria = conditions: cited from earlier work

CC(O)C(=O)O (stereo not shown) [1% LA, lactic acid]
Log reduction according to EN 1276 (L. monocytogenes): 3.8
Log reduction according to EN 1276 (S. typhimurium): >5

OO [3% H2O2, hydrogen peroxide]
Log reduction according to EN 1276 (E. coli): >5
Log reduction according to EN 1276 (S. aureus): <1
Log reduction according to EN 1276 (P. aeruginosa): >5
Log reduction according to EN 1276 (E. hirae): 0.1

OO [hydrogen peroxide]
time in which bactericidal and virucidal activity was demonstrated (bacteria, viruses): 1 min
concentration that will work against most spores (spores): 3%

CC(O)C(=O)O (stereo not shown) [lactic acid]
concentration regarded as bactericidal (bacteria): ≥ 0.25 % w/w

CC(O)C(=O)O (stereo not shown) [1% LA, pH 3, lactic acid]
Log reduction according to EN 1276 (L. monocytogenes): 2.2
Log reduction according to EN 1276 (S. typhimurium): >5

OO [1% H2O2, hydrogen peroxide]
Log reduction according to EN 1276 (L. monocytogenes): 0.6
Log reduction according to EN 1276 (S. typhimurium): 0.5
